Values of other authors in patent publication US20130102469A1, “Method and compound for removing flora from sewer lines” (Swartz family dba Olvidium, priority 2011, published 2013).

Test system: tree roots

N#Cc1c(Cl)cccc1Cl [Dichlobenil, 2,6 dichlorobenzonitrile]
distance back from the contact site over which roots are killed (sewer line root control): 1-2 ″

c1cc[n+]2c(c1)-c1cccc[n+]1CC2 [Diquat]
root kill (in words) (sewer line use, roots coated with organic detritus): spotty and inconsistent root kill

CNC(=S)[S-].[Na+] [Metham Sodium]
root kill (inside the pipe and outside the pipe where the gas travels): 100%
